The record followed here is patent publication US11254690B2, “PTEFb inhibiting macrocyclic compounds” (BAYER AKTIENGESELLSCHAFT, priority 2017, dated 2022).

Assay [1] concerns the target T1, CDK2/CycE (Homo sapiens, UniProt P24941).
T1 construct: GST; purchased ProQinase GmbH (Freiburg, Germany); host or cells: insect cells (Sf9)
In words: CDK2/CycE high ATP kinase assay (TR-FRET, 2 mM ATP). Type of assay: biochemical. Conditions: Method 2b. How it is done: 2b. CDK2/CycE High ATP Kinase Assay
CDK2/CycE-inhibitory activity of compounds of the present invention at 2 mM adenosine-tri-phosphate (ATP) was quantified employing the CDK2/CycE TR-FRET (TR-FRET=Time Resolved Fluorescence Energy Transfer) assay as described in the following paragraphs.
Recombinant fusion proteins of GST and human CDK2 and of GST and human CycE, expressed in insect cells (Sf9) and purified by Glutathion-Sepharose affinity chromatography, were purchase from ProQinase GmbH (Freiburg, Germany). As substrate for the kinase reaction biotinylated peptide biotin-Ttds-YISPLKSPYKISEG (C-terminus in amid form) was used which can be purchased e.g. form the company JERINI peptide technologies (Berlin, Germany).
(§1) For the assay 50 nl of a 100 fold concentrated solution of the test compound in DMSO was pipetted into either a black low volume 384 well microtiter plate or a black 1536 well microtiter plate (both Greiner Bio-One, Frickenhausen, Germany), 2 μl of a solution of CDK2/CycE in aqueous assay buffer [50 mM Tris/HCl pH 8.0, 10 mM MgCl2, 1.0 mM dithiothreitol, 0.1 mM sodium ortho-vanadate, 0.01% (v/v) Nonidet-P40 (Sigma)] were added and the mixture was incubated for 15 min at 22° C. to allow pre-binding of the test compounds to the enzyme before the start of the kinase reaction. […] The concentration of CDK2/CycE was adjusted depending of the activity of the enzyme lot and was chosen appropriate to have the assay in the linear range, typical concentrations were about 10 ng/ml. The reaction was stopped by the addition of 3 μl of a solution of TR-FRET detection reagents (0.333 μM streptavidine-XL665 [Cisbio Bioassays, Codolet, France] and 1.67 nM anti-RB(pSer807/pSer811)-antibody from BD Pharmingen [#558389] and 2 nM LANCE EU-W1024 labeled anti-mouse IgG antibody [Perkin-Elmer, product no. AD0077, as an alternative a Terbium-cryptate-labeled anti-mouse IgG antibody from Cisbio Bioassays can be used]) in an aqueous EDTA-solution (167 mM EDTA, 0.2% (w/v) bovine serum albumin in 100 mM HEPES pH 7.5).
(§2) The resulting mixture was incubated 1 h at 22° C. to allow the formation of complex between the phosphorylated biotinylated peptide and the detection reagents. Subsequently the amount of phosphorylated substrate was evaluated by measurement of the resonance energy transfer from the Eu-chelate to the streptavidine-XL. Therefore, the fluorescence emissions at 620 nm and 665 nm after excitation at 350 nm was measured in a TR-FRET reader, e.g. a Pherastar (BMG Labtechnologies, Offenburg, Germany) or a Viewlux (Perkin-Elmer). The ratio of the emissions at 665 nm and at […] was taken as the measure for the amount of phosphorylated substrate. The data were normalised (enzyme reaction without inhibitor=0% inhibition, all other assay components but no enzyme=100% inhibition).
A general note: In TR-FRET formats the signal depends on donor and acceptor labels being close together.

The target of assay [2] is T2, CDK9/CycT1 (Homo sapiens, UniProt P50750).
T2 construct: Recombinant full-length His-tagged human CDK9 and CycT1; His; purchased Life Technologies PV4131; host or cells: insect cells
As to the kind of experiment: CDK9/CycT1 high ATP kinase assay (TR-FRET, 2 mM ATP). Format: biochemical. Conditions: for IC50: 2 mM ATP, Method 1b, lower limit for IC50s about 1-2 nM; for Selectivity high ATP CDK9 over high ATP CDK2: IC50 (high ATP CDK2)/IC50 (high ATP CDK9): ratio from Methods 1b and 2b, minimal values for IC50s near the assay limit. How it is done: 1b. CDK9/CycT1 High ATP Kinase Assay
CDK9/CycT1-inhibitory activity of compounds of the present invention at a high ATP concentration after preincubation of enzyme and test compounds was quantified employing the CDK9/CycT1 TR-FRET assay as described in the following paragraphs.
Recombinant full-length His-tagged human CDK9 and CycT1, expressed in insect cells and purified by Ni-NTA affinity chromatography, were purchased from Life Technologies (Cat. No PV4131). As substrate for the kinase reaction biotinylated peptide biotin-Ttds-YISPLKSPYKISEG (C-terminus in amide form) was used which can be purchased e.g. form the company JERINI peptide technologies (Berlin, Germany).
as §1, with “CDK9/CycT1” for “CDK2/CycE”, “in the range of 0.5 μg/ml.” for “about 10 ng/ml.”, “(0.33” for “(0.333”, “AD0077])” for “AD0077, as an alternative a Terbium-cryptate-labeled anti-mouse IgG antibody from Cisbio Bioassays can be used])”
as §2

Assay [3] relates to A2780 cells. In words: Proliferation assay, A2780. Format: cell-based, human. As to conditions: 72-hour exposure, Cell Titre-Glo, read-out: Inhibition of A2780 cell proliferation IC50. The procedure: Cultivated tumour cells (HeLa, human cervical tumour cells, ATCC CCL-2; NCI-H460, human non-small cell lung carcinoma cells, ATCC HTB-177; DU 145, hormone-independent human prostate carcinoma cells, ATCC HTB-81; HeLa-MaTu-ADR, multidrug-resistant human cervical carcinoma cells, EPO-GmbH Berlin; Caco-2, human colorectal carcinoma cells, ATCC HTB-37; B16F10, mouse melanoma cells, ATCC CRL-6475) were plated at a density of 5,000 cells/well (DU145, HeLa-MaTu-ADR), 3,000 cells/well (NCI-H460, HeLa), 1,500 cells/well (Caco-2), or 1,000 cells/well (B16F10) in a 96-well multititer plate in 200 μL of their respective growth medium supplemented 10% fetal calf serum. After 24 hours, the cells of one plate (zero-point plate) were stained with crystal violet (see below), while the medium of the other plates was supplemented with the test substances in various concentrations (0 μM, as well as in the range of 0.0001-10 μM; the final concentration of the solvent dimethyl sulfoxide was adjusted to 0.1%) using a Hewlett-Packard HP D300 Digital Dispenser. The cells were incubated for 4 days in the presence of test substances. Cell proliferation was determined by staining the cells with crystal violet: the cells were fixed by adding 20 μl/measuring point of an 11% glutaric aldehyde solution for 15 minutes at room temperature. After three washing cycles of the fixed cells with water, the plates were dried at room temperature. The cells were stained by adding 100 μl/measuring point of a 0.1% crystal violet solution (pH 3.0). After three washing cycles of the stained cells with water, the plates were dried at room temperature. The dye was dissolved by adding 100 μl/measuring point of a 10% acetic acid solution. The extinction was determined by photometry at a wavelength of 595 nm. The change of cell number, in percent, was calculated by normalization of the measured values to the extinction values of the zero-point plate (=0%) and the extinction of the untreated ([…]) cells (=100%). The IC50 values (inhibitory concentration at 50% of maximal effect) were determined by means of a 4 parameter fit. A2780 human ovarian carcinoma cells (ECACC #93112519) and non-adherent MOLM-13 human acute myeloid leukemia cells (DSMZ ACC 554) were seeded at a density of 3,000 cell/well (A2780) or 5,000 cells/well (MOLM-13) in a 96-well multititer plate in 150 μL of growth medium supplemented 10% fetal calf serum. After 24 hours, cell viability of one plate (zero-point plate) was determined with the Cell Titre-Glo Luminescent Cell Viability Assay (Promega), while the medium of the other plates was supplemented with the test substances in various concentrations (0 μM, as well as in the range of 0.0001-10 μM; the final concentration of the solvent dimethyl sulfoxide was adjusted to 0.1%) using a Hewlett-Packard HP D300 Digital Dispenser. Cell viability was assessed after 72-hour exposure with the Cell Titre-Glo Luminescent Cell Viability Assay (Promega). IC50 values (inhibitory concentration at 50% of maximal effect) were determined by means of a 4 parameter fit on measurement data which were normalized to vehicle (DMSO) treated cells (=100%) and measurement readings taken immediately before compound exposure (=0%).

Where two headings read alike, the source gives them in different places.

T2 sequence (P50750 whole entry): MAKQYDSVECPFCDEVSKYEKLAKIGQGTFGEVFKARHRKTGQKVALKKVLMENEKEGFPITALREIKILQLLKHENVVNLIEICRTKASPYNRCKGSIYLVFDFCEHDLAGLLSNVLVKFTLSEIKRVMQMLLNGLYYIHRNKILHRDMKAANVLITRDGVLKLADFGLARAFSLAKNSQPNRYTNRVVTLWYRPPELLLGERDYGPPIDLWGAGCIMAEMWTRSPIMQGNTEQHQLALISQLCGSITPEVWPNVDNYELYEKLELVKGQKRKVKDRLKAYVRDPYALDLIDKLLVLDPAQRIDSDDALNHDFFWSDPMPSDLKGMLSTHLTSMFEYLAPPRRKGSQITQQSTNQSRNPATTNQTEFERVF
T2 sequence (O60563 whole entry partner): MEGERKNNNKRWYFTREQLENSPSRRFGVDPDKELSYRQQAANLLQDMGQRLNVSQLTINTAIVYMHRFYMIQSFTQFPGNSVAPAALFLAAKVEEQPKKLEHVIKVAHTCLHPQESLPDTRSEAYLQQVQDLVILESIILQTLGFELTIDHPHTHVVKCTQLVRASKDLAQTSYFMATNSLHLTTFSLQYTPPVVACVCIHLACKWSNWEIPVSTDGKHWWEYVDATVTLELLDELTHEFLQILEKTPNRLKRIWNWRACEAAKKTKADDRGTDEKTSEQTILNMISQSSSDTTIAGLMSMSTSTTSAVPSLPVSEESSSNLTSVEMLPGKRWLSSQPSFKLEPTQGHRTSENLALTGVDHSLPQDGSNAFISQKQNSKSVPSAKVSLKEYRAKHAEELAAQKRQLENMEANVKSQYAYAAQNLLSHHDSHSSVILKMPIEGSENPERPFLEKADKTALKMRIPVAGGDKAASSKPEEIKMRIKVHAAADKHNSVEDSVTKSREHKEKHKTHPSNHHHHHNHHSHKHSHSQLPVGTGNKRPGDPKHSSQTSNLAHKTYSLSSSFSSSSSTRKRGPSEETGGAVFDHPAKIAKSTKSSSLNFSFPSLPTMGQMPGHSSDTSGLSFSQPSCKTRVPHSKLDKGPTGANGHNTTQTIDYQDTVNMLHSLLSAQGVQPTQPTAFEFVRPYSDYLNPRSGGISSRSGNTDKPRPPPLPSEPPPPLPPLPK

For `CSCc1cc2nc(c1)OC(C)CCCOc1cc(ccc1F)-c1cc(ncc1F)N2` (racemic) [Example 11, (rac)-3,20-difluoro-14-methyl-10-[(methylsulfanyl)methyl]-13,18-dioxa-5,7,24-triazatetracyclo[17.3.1.1^2,6.1^8,12]pentacosa-1(23),2(25),3,5,8(24),9,11,19,21-nonaene], the IC50 in assay [1] came to 4.67 µM; in assay [2] it was 7 nM; in assay [3] (Homo sapiens, A2780, 72 h), 346 nM. For the same compound, in assay [2], the “Selectivity high ATP CDK9 over high ATP CDK2: IC50 (high ATP CDK2)/IC50 (high ATP CDK9)” value (from here on “Selectivity high ATP CDK9”) was found to be 667.
Turning to `CC1CCCOc2cc(ccc2F)-c2cc(ncc2F)Nc2cc(CS(C)(=N)=O)cc(n2)O1` (single isomer, unassigned) [Example 15, 3,20-difluoro-14-methyl-10-[(S-methylsulfonimidoyl)methyl]-13,18-dioxa-5,7,24-triazatetracyclo[17.3.1.1^2,6.1^8,12]pentacosa-1(23),2(25),3,5,8(24),9,11,19,21-nonaene], the IC50 worked out at 1.62 µM in assay [1], 3 nM in assay [2] and 16 nM in assay [3]. Also, the “Selectivity high ATP CDK9” value in assay [2] turned out to be 540.
The like results for `CC1CCCCOc2cc(ccc2F)-c2cc(ncc2F)Nc2cc(CS(C)(=O)=O)cc(n2)O1` (single isomer, unassigned) [Example 30, 3,21-difluoro-14-methyl-10-[(methylsulfonyl)methyl]-13,19-dioxa-5,7,25-triazatetracyclo[18.3.1.1^2,6.1^8,12]hexacosa-1(24),2(26),3,5,8(25),9,11,20,22-nonaene] were, in that order, 3.59 µM, 3 nM, 55 nM and 1196.
For the compound `CC1CCCCCOc2cc(ccc2F)-c2cc(ncc2F)Nc2cc(CS(C)(=N)=O)cc(n2)O1` (single isomer, unassigned) [Example 26, 3,22-difluoro-14-methyl-10-[(S-methylsulfonimidoyl)methyl]-13,20-dioxa-5,7,26-triazatetracyclo[19.3.1.1^2,6.1^8,12]heptacosa-1(25),2(27),3,5,8(26),9,11,21,23-nonaene], the IC50 in assay [1] came out at 13 µM; in assay [2] it was 4 nM; in assay [3] (Homo sapiens, A2780, 72 h), 53 nM. Moreover, the “Selectivity high ATP CDK9” value in assay [2] stood at 3250.
With `CC1CCCCCOc2cc(ccc2F)-c2cc(ncc2F)Nc2cc(CS(C)(=N)=O)cc(n2)O1` (single isomer, unassigned) [Example 27, 3,22-difluoro-14-methyl-10-[(S-methylsulfonimidoyl)methyl]-13,20-dioxa-5,7,26-triazatetracyclo[19.3.1.1^2,6.1^8,12]heptacosa-1(25),2(27),3,5,8(26),9,11,21,23-nonaene], the IC50 in assay [1] worked out at 2.72 µM; in assay [2], 5 nM; in assay [3], 102 nM. Also, in assay [2], the “Selectivity high ATP CDK9” value stood at 544.
The like results for `CC1CCCOc2cc(ccc2F)-c2cc(ncc2F)Nc2cc(CS(C)(=N)=O)cc(n2)O1` (single isomer, unassigned) [Example 14, 3,20-difluoro-14-methyl-10-[(S-methylsulfonimidoyl)methyl]-13,18-dioxa-5,7,24-triazatetracyclo[17.3.1.1^2,6.1^8,12]pentacosa-1(23),2(25),3,5,8(24),9,11,19,21-nonaene] were, in that order, 1.51 µM, 3 nM, 23 nM and 503.
On the same counts, the results for `CC1CCCCCOc2cc(ccc2F)-c2cc(ncc2F)Nc2cc(CS(C)(=O)=O)cc(n2)O1` (single isomer, unassigned) [Example 32, 3,22-difluoro-14-methyl-10-[(methylsulfonyl)methyl]-13,20-dioxa-5,7,26-triazatetracyclo[19.3.1.1^2,6.1^8,12]hexacosa-1 (25),2(27),3,5,8(26),9,11,21,23-nonaene] are 4.98 µM, 18 nM, 146 nM and 277.
